This assay concerns the target T1, SIRT1 (Homo sapiens, UniProt Q96EB6).
T1 sequence (Q96EB6 1-747): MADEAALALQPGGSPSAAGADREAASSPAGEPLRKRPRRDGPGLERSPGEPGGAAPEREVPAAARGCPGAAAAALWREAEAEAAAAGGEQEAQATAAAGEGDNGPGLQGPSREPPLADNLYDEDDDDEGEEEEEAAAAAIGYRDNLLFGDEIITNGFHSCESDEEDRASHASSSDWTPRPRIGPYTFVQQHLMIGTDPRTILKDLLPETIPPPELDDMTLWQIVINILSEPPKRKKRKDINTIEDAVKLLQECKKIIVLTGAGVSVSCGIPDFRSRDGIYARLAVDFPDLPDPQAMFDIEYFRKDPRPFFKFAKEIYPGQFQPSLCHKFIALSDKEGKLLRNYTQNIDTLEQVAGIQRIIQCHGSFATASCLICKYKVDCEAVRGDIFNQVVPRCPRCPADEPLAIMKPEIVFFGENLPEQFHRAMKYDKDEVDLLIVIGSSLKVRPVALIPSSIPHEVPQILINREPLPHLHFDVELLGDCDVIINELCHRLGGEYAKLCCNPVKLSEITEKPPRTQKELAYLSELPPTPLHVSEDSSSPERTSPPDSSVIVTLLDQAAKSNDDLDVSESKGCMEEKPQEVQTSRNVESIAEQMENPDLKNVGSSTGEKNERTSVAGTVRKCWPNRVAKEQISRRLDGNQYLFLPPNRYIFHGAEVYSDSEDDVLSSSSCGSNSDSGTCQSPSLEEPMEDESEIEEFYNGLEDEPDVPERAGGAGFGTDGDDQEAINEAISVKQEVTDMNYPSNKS
The experiment in a line: SIRT1 mass spectrometry (MS) based deacetylation assay. For FOLD ACT. MS: test concentration or dose not given here. The format is biochemical. The note with it: for EC50: mass spectrometry assay, read-out: ED50 MS ASSAY.

The mark [1] stands for this setting: SIRT1 fold activation as determined by MS.
[2] abbreviates: fold activation of SIRT1 as determined by MS.
[3] abbreviates: fold activation of SIRT1, mass spectrometry assay.
Where [4] appears, read: Sirt1 activators, fold activation as determined by MS.

Molecules are shown by their SMILES. Like-named read-outs stand apart in the source and are kept apart here.

As to `CN1CCN(Cc2csc3nc(-c4ccccc4NC(=O)c4cnc5ccccc5n4)cn23)C(=O)C1` [Compound 741], the EC50 (SIRT1 activation) was below 5 µM. The “FOLD ACT. MS” value under setting [1] is “A (A (Fold activation >250%))”. Take `COc1ccc(C(=O)Nc2cc(C(=O)N3CCNCC3)cc(-c3nc4ncccc4o3)c2)cc1OC` [Compound 107, 3,4-dimethoxy-N-(3-(oxazolo[4,5-b]pyridin-2-yl)-5-(piperazine-1-carbonyl)phenyl)benzamide]: for the setting “SIRT1 activation”, the EC50 is 5 to 50 µM. The “FOLD ACT. MS” value under setting [2] is “B (B (Fold Activation <250%))”. On to `CN(C)c1ccc(C(=O)Nc2cccc(-c3nc4cnccc4s3)c2)cc1` [Compound 403], for which the EC50 (SIRT1 activation) is below 5 µM. Besides, the “FOLD ACT. MS” value under setting [3] was “B (B (Fold Activation <250%))”. Consider `CN(C)c1cccc(C(=O)Nc2cc(-c3nc4ncccc4o3)ccn2)c1` [Compound 76], for which the EC50 (SIRT1 activation) is 5 to 50 µM. In addition, the “FOLD ACT. MS” value under setting [2] is “B (B (Fold Activation <250%))”.

For `CN(C)c1cccc(C(=O)Nc2ccc(-c3nc4cnccc4s3)s2)c1` [Compound 518], the “FOLD ACT. MS” value under setting [4] is “B (B (Fold Activation <250%))”. The EC50 (Sirt1 activators) was below 5 µM.

Regarding `COc1cc(C(=O)Nc2ccccc2-c2nc3ncccc3o2)ccc1CN1CCCCC1` [Compound 585], the “FOLD ACT. MS” value under setting [4] is reported as “B (B (Fold Activation <250%))”. Under “Sirt1 activators”, the EC50 is 5 to 50 µM. Consider `COc1ccc(C(=O)Nc2ccccc2-c2nc3ccccc3n2C)cc1OC` [Compound 314], for which the EC50 (SIRT1 activation) was in the range of 5 to 50 µM. For the same molecule, the “FOLD ACT. MS” value under setting [3] is reported as “B (B (Fold Activation <250%))”. For `COc1ccc(C(=O)N2CCCN(c3nc4ccccc4o3)CC2)c(OC)c1` [Compound 88], under “SIRT1 activation”, the EC50 is above 150 µM. With `Cc1csc2nc(-c3ccccc3NC(=O)c3cccc(N(C)C)c3)cn12` [Compound 740], the EC50 (SIRT1 activation) is below 5 µM. Under setting [1], the “FOLD ACT. MS” value is “B (B (Fold Activation <250%))”. In the case of `CN(C)c1ccc(C(=O)Nc2ccccc2-c2nc3cccnc3[nH]2)cc1` [Compound 534], the “FOLD ACT. MS” value under setting [4] is on record as “B (B (Fold Activation <250%))”. The EC50 (Sirt1 activators) was below 5 µM. Regarding `CN(C)c1cccc(C(=O)Nc2ccccc2-c2cn3c(CN4CCNCC4)csc3n2)c1` [Compound 327], the EC50 (SIRT1 activation) lay within 5 to 50 µM. For the same molecule, under setting [3], the “FOLD ACT. MS” value is “A (A (Fold activation >250%))”. Consider `COc1cc(OC)cc(C(=O)Nc2ccccc2-c2nc3cccnc3[nH]2)c1` [Compound 521], for which the “FOLD ACT. MS” value under setting [4] is on record as “B (B (Fold Activation <250%))”. Also, the EC50 (Sirt1 activators) is below 5 µM. With `CN(C(=O)Nc1ccccc1-c1nc2ccccc2[nH]1)c1ccccc1` [Compound 169], where the note is “SIRT1 activation”, the EC50 was below 5 µM. Besides, the “FOLD ACT. MS” value under setting [2] is recorded as “B (B (Fold Activation <250%))”. Regarding `S=C(Nc1cccnc1)Nc1cccc(-c2nc3ccncc3s2)c1` [Compound 485], where the note is “Sirt1 activators”, the EC50 lay in the range of 5 to 50 µM.

Take `O=C(Nc1ccccc1-c1cn2c(CN3CCNCC3)csc2n1)c1cccc(SC(F)F)c1` [Compound 737]: the EC50 (SIRT1 activation) is below 5 µM. The “FOLD ACT. MS” value under setting [1] was “A (A (Fold activation >250%))”. On to `O=C(Nc1ccc2c(c1)OCO2)Nc1cccc(-c2nc3ncccc3o2)n1` [Compound 71], for which the EC50 (SIRT1 activation) was 5 to 50 µM. Also, under setting [2], the “FOLD ACT. MS” value is “B (B (Fold Activation <250%))”. Regarding `COc1ccc(C(=O)Nc2cccc(-c3nc4cnccc4o3)c2)cc1OC` [Compound 344], the EC50 (SIRT1 activation) was below 5 µM. Also, the “FOLD ACT. MS” value under setting [3] was “B (B (Fold Activation <250%))”. As for `CN(C)c1ccc(C(=O)Nc2cccc(-c3nc4ncccc4o3)n2)cc1` [Compound 70], the EC50 (SIRT1 activation) was 5 to 50 µM. Further, under setting [2], the “FOLD ACT. MS” value is on record as “B (B (Fold Activation <250%))”.

On to `CN(C)c1ccc(C(=O)Nc2ccccc2-c2nc3ccncc3o2)cc1` [Compound 459], for which, under setting [4], the “FOLD ACT. MS” value is “B (B (Fold Activation <250%))”. Where the note is “Sirt1 activators”, the EC50 is below 5 µM. Take `CN(C)c1cccc(C(=O)Nc2ccccc2-c2nc3ccncc3o2)c1` [Compound 458]: for the setting “SIRT1 activation”, the EC50 was below 5 µM. The “FOLD ACT. MS” value under setting [3] is recorded as “B (B (Fold Activation <250%))”.

Turning to `O=C(Nc1ccccc1-c1cn2c(CN3CCOCC3)csc2n1)c1cnc2ccccc2n1` [Compound 617], the “FOLD ACT. MS” value under setting [4] is reported as “A (A (Fold activation >250%))”. Further, where the note is “Sirt1 activators”, the EC50 was below 5 µM.

`c1cc(Nc2nc3ccccc3s2)cc(-c2nc3ncccc3o2)c1` [Compound 95]: the EC50 (SIRT1 activation) is below 5 µM. Also, under setting [2], the “FOLD ACT. MS” value is “B (B (Fold Activation <250%))”. For the molecule `CS(=O)(=O)Nc1cccc(C(=O)Nc2cc(-c3nc4ncccc4o3)ccn2)c1` [Compound 566], under setting [4], the “FOLD ACT. MS” value is given as “B (B (Fold Activation <250%))”. Further, the EC50 (Sirt1 activators) was in the range of 5 to 50 µM. Turning to `O=C(Nc1cccc(-c2nc3ccncc3s2)c1)c1ccc2ccccc2n1` [Compound 307], the EC50 (SIRT1 activation) was below 5 µM. Further, the “FOLD ACT. MS” value under setting [3] is “A (A (Fold activation >250%))”. For the molecule `COc1cc(OC)cc(C(=O)Nc2cccc(-c3nc4cccnc4s3)c2)c1` [Compound 215], the EC50 (SIRT1 activation) was below 5 µM. Also, under setting [2], the “FOLD ACT. MS” value was “B (B (Fold Activation <250%))”. Consider `COc1ccc(C(=O)Nc2ccccc2-c2nc3cccnc3[nH]2)cc1OC` [Compound 525], for which, under setting [4], the “FOLD ACT. MS” value is “B (B (Fold Activation <250%))”. For the same molecule, the EC50 (Sirt1 activators) was below 5 µM. As to `Cc1ccc(C(=O)Nc2ccccc2-c2nc3ccc(CN4CCNCC4)nc3s2)cc1C` [Compound 727], for the setting “SIRT1 activation”, the EC50 is below 5 µM. In addition, under setting [1], the “FOLD ACT. MS” value is reported as “A (A (Fold activation >250%))”.

For `COc1ccc(C(=O)Nc2ccccc2-c2nc3ccccn3c2CN(C)C)cc1OC` [Compound 350], for the setting “SIRT1 activation”, the EC50 lay in the range of 51 to 100 µM. The “FOLD ACT. MS” value under setting [3] is listed as “B (B (Fold Activation <250%))”. For the molecule `O=C(Nc1ccccc1-c1nc2cccnc2[nH]1)c1ccccc1` [Compound 533], the “FOLD ACT. MS” value under setting [4] is recorded as “B (B (Fold Activation <250%))”. The EC50 (Sirt1 activators) was below 5 µM. Turning to `COc1ccc(C(=O)Nc2ccc(-c3nc4cnccc4o3)s2)cc1OC` [Compound 423], the EC50 (SIRT1 activation) was below 5 µM. Besides, under setting [3], the “FOLD ACT. MS” value was “B (B (Fold Activation <250%))”. For `O=C(Nc1ncccc1-c1cn2c(CN3CCOCC3)csc2n1)c1cnc2ccccc2n1` [Compound 621], the “FOLD ACT. MS” value under setting [4] was “A (A (Fold activation >250%))”. The EC50 (Sirt1 activators) was below 5 µM. `COC(=O)c1ccc(-n2cncn2)c(NC(=O)c2ccc(OC)c(OC)c2)c1` [Compound 258]: the EC50 (SIRT1 activation) was in the range of 5 to 50 µM. In addition, the “FOLD ACT. MS” value under setting [3] is given as “B (B (Fold Activation <250%))”.

As to `O=C(Nc1ccccc1-c1nc2ccc(CN3CCNCC3)nc2s1)c1ccc(F)c(F)c1` [Compound 728], the EC50 (SIRT1 activation) fell in the range of 5 to 50 µM. Also, under setting [1], the “FOLD ACT. MS” value is reported as “A (A (Fold activation >250%))”. As to `COc1cc(C(=O)Nc2ccc(-c3nc4cnccc4s3)s2)cc(OC)c1OC` [Compound 520], under setting [4], the “FOLD ACT. MS” value is given as “B (B (Fold Activation <250%))”. The EC50 (Sirt1 activators) is below 5 µM.

As to `COc1ccc(-c2cc(C(=O)Nc3ccccc3-c3cn4c(CN5CCNCC5)csc4n3)[nH]n2)cc1` [Compound 735], the EC50 (SIRT1 activation) is below 5 µM. For the same molecule, the “FOLD ACT. MS” value under setting [1] is recorded as “A (A (Fold activation >250%))”. Turning to `N#Cc1cccc(C(=O)Nc2ccccc2-c2cn3c(CN4CCNCC4)csc3n2)c1` [Compound 330], the EC50 (SIRT1 activation) lay within 5 to 50 µM. For the same molecule, the “FOLD ACT. MS” value under setting [3] is given as “A (A (Fold activation >250%))”. Take `COc1cc(C(=O)Nc2ccccc2-c2nc3cccnc3[nH]2)ccc1CN1CCN(C)CC1` [Compound 539]: the “FOLD ACT. MS” value under setting [4] is given as “A (A (Fold activation >250%))”. Moreover, the EC50 (Sirt1 activators) was below 5 µM. `Cn1nc(C(C)(C)C)cc1C(=O)Nc1cccc(-c2nc3ccncc3s2)c1` [Compound 246]: the EC50 (SIRT1 activation) was below 5 µM. Moreover, under setting [3], the “FOLD ACT. MS” value is “B (B (Fold Activation <250%))”.

Turning to `CN(C)c1cccc(C(=O)Nc2ccccc2-c2nc3cnccc3o2)c1` [Compound 406], the EC50 (SIRT1 activation) was below 5 µM. Moreover, the “FOLD ACT. MS” value under setting [3] is given as “B (B (Fold Activation <250%))”.

Regarding `COc1cc(C(=O)Nc2ccccc2-c2nc3cc(CN(C)C)cnc3s2)cc(OC)c1OC` [Compound 689], where the note is “SIRT1 activation”, the EC50 was in the range of 5 to 50 µM. For the same molecule, under setting [1], the “FOLD ACT. MS” value is “A (A (Fold activation >250%))”. With `COc1cc(C(=O)Nc2cc(-c3nc4ncccc4o3)ccn2)ccc1CN1CCN(C)CC1` [Compound 637], the “FOLD ACT. MS” value under setting [4] was “B (B (Fold Activation <250%))”. In addition, the EC50 (Sirt1 activators) is above 150 µM. Consider `CC(C)(C)c1ccc(S(=O)(=O)Nc2ccccc2-c2nc3ncccc3o2)cc1` [Compound 98], for which, where the note is “SIRT1 activation”, the EC50 is above 150 µM. As for `COc1ccc(NC(=S)Nc2cccc(-c3nc4ccncc4s3)c2)cc1OC` [Compound 600], the EC50 (Sirt1 activators) was above 150 µM. As for `COc1ccc(NC(=S)Nc2cccc(-c3nc4ccncc4s3)c2)c(OC)c1` [Compound 599], the EC50 (Sirt1 activators) is below 5 µM.

In the case of `COc1ccc(C(=O)Nc2cncc(-c3nc4ncccc4o3)c2)cc1OC` [Compound 67], the EC50 (SIRT1 activation) fell in the range of 5 to 50 µM.

For the molecule `COc1cc(C(=O)Nc2cccc(-c3nc4cnccc4s3)c2)cc(OC)c1OC` [Compound 273], the EC50 (SIRT1 activation) was 5 to 50 µM. Moreover, the “FOLD ACT. MS” value under setting [3] was “A (A (Fold activation >250%))”.

For the origin of these results see US8044198B2, “Sirtuin modulating compounds” (Sirtris Pharmaceuticals, Inc., priority 2005, dated 2011).
